Assay results as given in patent US7935823B2 (priority 2007, dated 2011).

Experiments:
[1] = target: butyrylcholine esterase (BuChE) (Homo sapiens, UniProt P06276); assay: Butyrylcholine esterase assay; format: biochemical; conditions: compound concentration 10 uM; human serum enzyme; 560 uM S-butyrylthiocholine
Protocol: Butyrylcholine Esterase Assay.
The assay was conducted as follows [Ellman G. L., Courtney K. D., Andres Jr. V., and Featherstone R. N. A new and rapid colorimetric determination of acetylcholinesterase activity.

5-HT6 Receptor = target: T1, 5-HT6 Receptor (Homo sapiens, UniProt P50406); assay: Binding with 5-HT6 receptor (radioligand binding); conditions: compound concentration 10 uM; ligand 1.5 nM [3H]-LSD
T1 construct: expressed in transfected cells; host or cells: HeLa cells
Protocol: Binding with 5-HT6 Receptor.
The assay was conducted as follows [Monsma F. J., Jr, Shen Y., Ward R. P., Hamblin M. W., and Sibley D. R. Cloning and Expression of a novel serotonin receptor with high affinity for tricyclic psychotropic drugs. Mol. Pharmacol. 1993, 43: 320-327]: • Receptor source: human recombinant HeLa cells; • Ligand: 1.5 nM [3H]-lysergic acid diethylamide (LSD); • Vehicle: 1% DMSO; • Incubation time: 2 hours at 37 C; • Incubation buffer: 50 mM Tris-HCl, pH 7.4, 150 mM NaCl, 2 mM ascorbic acid, 0.001% BSA; • Compound concentration: 10 uM; • Non-specific ligand: 5 uM serotonin (5-HT); • Quantitation method: radioligand binding

[2] = test system: mitochondrial permeability transition pores; conditions: MPP(+) and beta-amyloid fragment 25-35; cited from earlier work
C57BL/6 mice = assay: Object recognition test, recognition of a new localization of an object; format: in vivo; conditions: for object exploration / discrimination ratio compared with control: 0.02 mg/kg; for time exploring the object in a familiar localization / time exploring the object in a new localization: 0.1 mg/kg, tested 48 hours after training
Source text: Object recognition test as a method for research on the effects of some exemplary compounds on memory in mice.
The object recognition test is based on a spontaneous behavior of rats and mice to explore a novel object or a new localization of an object more often than a familiar one. This test was first developed for rats [Ennaceur A., Delacour J. A new one-trial test for neurobiological studies of memory in rats. 1: behavioral data. Behav. Brain Res. 1988; 31:47-59]. Thereafter, various researchers have shown that the test is also suitable for assessing memory performance in mice [e.g., Dodart J. C., Mathis C., Ungerer A. Scopolamine-induced deficits in a two-trial object recognition task in mice. NeuroReport 8 (1997), pp. 1173-1178]. The object recognition test is divided into two tests: a test of recognition of a new localization of an object that is used for research on spatial memory, and a test of recognition of a new object that is used for research on non-spatial memory.
Twenty (20) to twenty-two (22) month-old female mice (old mice) and four (4) to six (6) month-old male mice (young mice) of C57BL/6 strain were used. The animals were housed five per cage under a normal light cycle (12×12, light on at 8:00 AM) and with free access to water and food. The training box was made of white, opaque organic glass with dimensions of 48×38×30 cm. Two kinds of plastic items were used as objects for recognition: a white cylinder (d=4 cm, h=2.8 cm), and a black, three-edged prism (2.5×2.5×3.5 cm and h=3.4 cm). Care was taken to avoid olfactory stimuli by cleaning the objects and box carefully. Two (2) to three (3) min before the mice were placed into the box, the objects and the box were wiped with 85% ethanol. Animals were always placed in the middle of the training box.
Referring again to FIGS. 1A-1B and FIGS. 2A-2C, the mice were injected intraperitoneally with some of the various exemplary compounds shown in the figures, or with the vehicle (solvent) alone in the same volume, one hour before the recall trial.
On the first day of the experiment, the mice were handled in the research room for 20 to 30 min for acclimatization. Then, one by one, the mice were habituated to the training box by being placed into the box without any object for 20 min to explore the box, and were returned to their cages.
On the next day, the same mice were brought into a research room. After 20-30 min of acclimatization, each mouse was placed into an empty box for one minute. Then, the mouse was removed from the training box. Two identical objects (white cylinders) were placed approximately 5 inches distant from two adjacent corners of the box and immediately an animal was returned to the box. The time of exploring of each individual object was registered separately with the help of two electronic stop-watches (to within 0.1 sec). The behavior of each animal was observed through a mirror. Exploration was operationally defined as directing the nose to the object from a distance less than 2 cm, or touching the object with the nose. The duration of the training trial was 5, 10, 15 and 20 minutes.
[…] Testing was performed the same way as training, but one of the two familiar objects was changed to the new object (black prism).
When the recognition of a new localization of an object improved, the same experimental sequence was performed, except that only the localization of one of the familiar objects was changed in the testing session.
A significant variability of object exploration times between animals was measured. The ratio of object-exploration times was calculated as follows: each object-exploration time was divided by the sum of both of the object-exploration times during the same testing session, and expressed in percent: (tnew×100%)/(tfamiliar+tnew)
The data were analyzed using a one-way analysis of variance followed by a Student's t-test.

NMDA receptor = conditions: read-out: NMDA receptor inhibition constant (Ki); cited from earlier work

butyrylcholine esterase (BuChE), sequence (P06276 29-602): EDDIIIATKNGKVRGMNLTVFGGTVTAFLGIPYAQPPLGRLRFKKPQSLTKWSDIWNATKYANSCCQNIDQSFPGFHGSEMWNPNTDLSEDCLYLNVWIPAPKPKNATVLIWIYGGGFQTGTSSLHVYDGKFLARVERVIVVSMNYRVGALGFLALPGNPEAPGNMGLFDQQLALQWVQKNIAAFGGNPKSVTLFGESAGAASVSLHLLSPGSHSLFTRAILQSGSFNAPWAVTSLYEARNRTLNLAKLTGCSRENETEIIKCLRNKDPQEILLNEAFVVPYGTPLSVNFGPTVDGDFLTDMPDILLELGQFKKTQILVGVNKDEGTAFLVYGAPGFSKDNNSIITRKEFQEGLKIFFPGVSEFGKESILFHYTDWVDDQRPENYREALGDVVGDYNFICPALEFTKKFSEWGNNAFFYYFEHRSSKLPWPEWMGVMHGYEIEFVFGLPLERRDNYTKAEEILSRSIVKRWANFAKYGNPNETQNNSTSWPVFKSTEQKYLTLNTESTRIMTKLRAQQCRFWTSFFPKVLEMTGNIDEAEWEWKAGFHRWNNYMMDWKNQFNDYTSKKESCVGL
T1 sequence (P50406 whole entry): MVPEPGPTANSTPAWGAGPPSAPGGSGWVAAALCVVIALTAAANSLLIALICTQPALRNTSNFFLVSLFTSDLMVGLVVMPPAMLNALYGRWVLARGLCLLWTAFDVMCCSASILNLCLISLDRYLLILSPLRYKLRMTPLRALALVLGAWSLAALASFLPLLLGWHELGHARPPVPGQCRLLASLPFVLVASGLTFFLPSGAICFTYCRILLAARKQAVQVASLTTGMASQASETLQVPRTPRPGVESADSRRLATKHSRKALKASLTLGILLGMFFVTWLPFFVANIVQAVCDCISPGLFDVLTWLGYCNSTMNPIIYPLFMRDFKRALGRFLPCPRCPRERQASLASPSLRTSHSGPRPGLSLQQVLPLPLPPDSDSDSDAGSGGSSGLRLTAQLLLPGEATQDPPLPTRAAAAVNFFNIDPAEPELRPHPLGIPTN

Work on CN1CCc2c(c3ccccc3n2CCc2ccc(C(F)(F)F)nc2)C1 [4-01] yielded an inhibition at 10 µM [1] of 65% and an inhibition at 10 µM (5-HT6 Receptor) of 67%.
For Cc1ccc2c(c1)c1c(n2CCc2ccc(C(F)(F)F)nc2)CCN(C)C1 [4-02], the inhibition at 10 µM [1] was 95% and the inhibition at 10 µM (5-HT6 Receptor) was 97%.
Compound CN1CCc2c(c3cc(F)ccc3n2CCc2ccc(C(F)(F)F)nc2)C1 [4-03] has an inhibition at 10 µM [1] of 34% and an inhibition at 10 µM (5-HT6 Receptor) of 72%.
In the case of CN1CCc2c(c3cc(Cl)ccc3n2CCc2ccc(C(F)(F)F)nc2)C1 [4-04], the inhibition at 10 µM [1] is reported as 97% and the inhibition at 10 µM (5-HT6 Receptor) is reported as 100%.
Work on CN1CCc2c(c3cc(F)cc(F)c3n2CCc2ccc(C(F)(F)F)nc2)C1 [4-07] yielded an inhibition at 10 µM [1] of 20% and an inhibition at 10 µM (5-HT6 Receptor) of 79%.
Work on CCN1CCc2c(c3cc(Cl)ccc3n2CCc2ccc(C(F)(F)F)nc2)C1 [4-08] yielded an inhibition at 10 µM [1] of 100% and an inhibition at 10 µM (5-HT6 Receptor) of 77%.
COc1ccc2c(c1)c1c(n2CCc2ccc(C(F)(F)F)nc2)CCN(C)C1 [I. 4-06] gave an inhibition at 10 µM [1] of 99% and an inhibition at 10 µM (5-HT6 Receptor) of 72%.
For CC(=O)NCCc1c[nH]c2ccc(O)cc12 [N-acetylserotonin], the “prevention of neurotoxin-induced opening of mitochondrial pores” value [2] is listed as “prevented”.
CN1CCc2c(c3ccccc3n2CCc2cncc(F)c2)C1 [compound 1] showed an inhibition at 10 µM [1] of 75% and an inhibition at 10 µM (5-HT6 Receptor) of 90%.
Cc1ccc2c(c1)c1c(n2CCc2cncc(F)c2)CCN(C)C1 [compound 2] showed an inhibition at 10 µM [1] of 87% and an inhibition at 10 µM (5-HT6 Receptor) of 102%.
For CN1CCc2c(c3cc(F)ccc3n2CCc2cncc(F)c2)C1 [compound 3], the inhibition at 10 µM [1] was 58% and the inhibition at 10 µM (5-HT6 Receptor) was 99%.
With CN1CCc2c(c3cc(Cl)ccc3n2CCc2cncc(F)c2)C1 [compound 4] the inhibition at 10 µM [1] was 91% and the inhibition at 10 µM (5-HT6 Receptor) was 103%.
With CN1CCc2c(c3cc(Br)ccc3n2CCc2cncc(F)c2)C1 [compound 5] the “effectiveness as memory stimulating agents relative to memantine” value (C57BL/6 mice) was “approximately 25 times”, the “object exploration / discrimination ratio compared with control” value (C57BL/6 mice) was “did not differ significantly from the control” and the “time exploring the object in a familiar localization” value (C57BL/6 mice) was “approximately 43.0%”. The “time exploring the object in a new localization” value (C57BL/6 mice) was 57+/−4.6%, the inhibition at 10 µM [1] was 96% and the inhibition at 10 µM (5-HT6 Receptor) was 103%.
For COc1ccc2c(c1)c1c(n2CCc2cncc(F)c2)CCN(C)C1 [compound 6], the inhibition at 10 µM [1] was 99% and the inhibition at 10 µM (5-HT6 Receptor) was 96%.
For CN1CCc2c(c3cc(F)cc(F)c3n2CCc2cncc(F)c2)C1 [compound 8], the “effectiveness as memory stimulating agents relative to memantine” value (C57BL/6 mice) was “approximately 25 times”, the “object exploration / discrimination ratio compared with control” value (C57BL/6 mice) was “not different from that of the control mice” and the “time exploring the object in a familiar localization” value (C57BL/6 mice) was 39.2+/−6.9%. For the same compound, the “time exploring the object in a new localization” value (C57BL/6 mice) was 60.8+/−6.9%, the inhibition at 10 µM [1] was 31% and the inhibition at 10 µM (5-HT6 Receptor) was 91%.
In the case of CN1CCc2c(c3cc(C(F)(F)F)ccc3n2CCc2cncc(F)c2)C1 [compound 9], the inhibition at 10 µM [1] is reported as 95% and the inhibition at 10 µM (5-HT6 Receptor) is reported as 103%.
In the case of CN1CCc2c(c3cc(OC(F)(F)F)ccc3n2CCc2cncc(F)c2)C1 [compound 10], the inhibition at 10 µM [1] is reported as 100% and the inhibition at 10 µM (5-HT6 Receptor) is reported as 95%.
In the case of CCN1CCc2c(c3ccccc3n2CCc2cncc(F)c2)C1 [compound 11], the inhibition at 10 µM [1] is reported as 66% and the inhibition at 10 µM (5-HT6 Receptor) is reported as 77%.
Work on CCN1CCc2c(c3cc(C)ccc3n2CCc2cncc(F)c2)C1 [compound 12] yielded an inhibition at 10 µM [1] of 89% and an inhibition at 10 µM (5-HT6 Receptor) of 101%.
For CCN1CCc2c(c3cc(F)ccc3n2CCc2cncc(F)c2)C1 [compound 14], the inhibition at 10 µM [1] was 53% and the inhibition at 10 µM (5-HT6 Receptor) was 88%.
CCN1CCc2c(c3cc(Cl)ccc3n2CCc2cncc(F)c2)C1 [compound 15] showed an inhibition at 10 µM [1] of 94% and an inhibition at 10 µM (5-HT6 Receptor) of 99%.
In the case of CC12CC3CC(C)(C1)CC(N)(C3)C2 [memantine], the Ki (NMDA receptor) is listed as 500 nM.
For Nc1c2c(nc3ccccc13)CCCC2 [tacrine], the “prevention of neurotoxin-induced opening of mitochondrial pores” value [2] is given as “prevented”.
